In PubChem BioAssay AID248 (DTP/NCI, 2004):
Inconclusive results and toxic doses are left out. No stated cut-off is given here; in the data, active means T/C of 150% or more; inactive means T/C below 125%.

System: L1210 leukemia ip in BDF1 mice, survival T/C
Experiment: NCI In Vivo Anticancer Drug Screen. Data for tumor model L1210 Leukemia (intraperitoneal) in B6D2F1 (BDF1) mice
Conditions: endpoint: mean survival time, schedule: Q01DX015 (ip), vehicle: saline, higher = longer survival
How it was run: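 Each compound was tested against a transplantable tumor grown in mice. The endpoint was survival, with treated animals benchmarked against vehicle controls as a simple ratio.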

Measured: T/C

CCCCCCCCCCCC[N+](C)(C)Cc1ccccc1 (tested in a mixture with another compound)
inactive: dose: 2.0 mg/kg/injection 105 % of control | dose: 4.0 mg/kg/injection 94 % of control | dose: 8.0 mg/kg/injection 103 % of control
